Measured values from patent US10624972B2, “Conjugates for treating diseases” (priority 2015, dated 2020).
Read-outs that look alike come from different tables or passages of the source. *1 amine or outer side, *2 acyl side, *3 side chain or, on linkers, in order; H or OH if unused. Where a SMILES comes first, the peptide text is derived from it. The star is where a group is joined. X1 = COc1ccc(C2=CN(C(=O)c3cc(OC)c(OC)cc3N)[C@H](C3OCCN3C(=O)OCCS*)C2)cc1; X2 = COc1cc(N)c(C(=O)N2c3ccccc3C[C@H]2C2OCCN2C(=O)OCc2ccc(S*)cc2)cc1OC; Pteroyl = Nc1nc2ncc(CNc3ccc(C(=O)*)cc3)nc2c(=O)[nH]1; γGlu = O=C(O)[C@H](CCC(=O)[*:2])N[*:1]

Experiments:
KB cells = test: cells; format: cell-based, Human
Description: METHOD. Inhibition of Cellular DNA Synthesis. The conjugates described herein were evaluated using an in vitro cytotoxicity assay that predicted the ability of the drug to inhibit the growth of the corresponding targeted cells, such as, but not limited to the following
It is to be understood that the choice of cell type can be made on the basis of the susceptibility of those selected cells to the drug that forms the conjugate, and the relative expression of the cell surface receptor or target antigen. The test conjugates were conjugates of a cell surface receptor or target antigen binding compound and PBD prodrugs, poly-PBD prodrugs, and mixed PBDs, as described herein. The test cells were exposed to varying concentrations of the conjugates, and optionally also in the absence or presence of at least a 100-fold excess of the unconjugated cell surface receptor or target antigen binding compound for competition studies to assess activity as being specific to the cell surface receptor or target antigen.
EXAMPLE. Conjugates of PBD prodrugs, poly-PBD prodrugs, and mixed PBDs described herein were active against KB cells. The activity was mediated by the folate receptor as indicated by competition experiments using co-administered folic acid. KB cells were exposed for up to 7 h at 37° C. to the indicated concentrations of folate-drug conjugate in the absence or presence of at least a 100-fold excess of folic acid. The cells were then rinsed once with fresh culture medium and incubated in fresh culture medium for 72 hours at 37° C. Cell viability was assessed using a ^3H-thymidine incorporation assay. For conjugates described herein, dose-dependent cytotoxicity was generally measurable, and in most cases, the IC50 values (concentration of drug conjugate required to reduce ^3H-thymidine incorporation into newly synthesized DNA by 50%) were in the low nanomolar range.

[1] = Toxicity as measured by weight loss (test animal total body weight); format: in vivo, mice; settings: KB tumor study; 2 μmol/kg TIW for two weeks
Description: METHOD. Toxicity as Measured by Weight Loss. The percentage weight change of the test animals was determined on selected days post-tumor inoculation (PTI), and during dosing. The results were graphed.

[2] = Homo sapiens, KB cells, 3H-thymidine incorporation, read-out: IC50 KB Cells
[3] = Homo sapiens, KB cells, co-administered with dithiothreitol (DTT), read-out: IC50 KB Cells

SMILES	IC50 (KB cells; 3 h) [nM]	also measured
COc1ccc(C2=CN(C(=O)c3cc(OC)c(OC)cc3N)[C@H](C3OCCN3C(=O)OCCSSc3ccccn3)C2)cc1 (some centres unmarked) [EC1628]		IC50 (KB cells; [2]): 383 nM; IC50 (KB cells; [3]): 11 nM
COc1ccc(C2=CN(C(=O)c3cc(OC)c(OC)cc3N)[C@H](C3OCCN3C(=O)OCCSSC[C@H](NC(=O)[C@H](CC(=O)O)NC(=O)[C@H](CC(=O)O)NC(=O)[C@H](CCCNC(=N)N)NC(=O)[C@H](CC(=O)O)NC(=O)CC[C@H](NC(=O)c3ccc(NCc4cnc5nc(N)[nH]c(=O)c5n4)cc3)C(=O)O)C(=O)O)C2)cc1 (some centres unmarked) [EC1629] ({Pteroyl-γGlu}-DRDDC(X1)-OH)		toxicity as evidenced by test animal total body weight [1]: Toxicity was not observed
COc1cc(N)c(C(=O)N2c3ccccc3C[C@H]2C2OCCN2C(=O)OCc2ccc(SSC[C@H](NC(=O)[C@H](CC(=O)O)NC(=O)[C@H](CC(=O)O)NC(=O)[C@H](CCCNC(=N)N)NC(=O)[C@H](CC(=O)O)NC(=O)CC[C@H](NC(=O)c3ccc(NCc4cnc5nc(N)[nH]c(=O)c5n4)cc3)C(=O)O)C(=O)O)cc2)cc1OC (some centres unmarked) [EC1673] ({Pteroyl-γGlu}-DRDDC(X2)-OH)		IC50 (KB cells): ≥ 1000 nM
C=C1C[C@@H](C2OCCN2C(=O)OCCSSc2ccccn2)N(C(=O)c2cc(OC)c(OCCCCCOc3cc(N)c(C(=O)N4CC(=C)C[C@H]4C4OCCN4C(=O)OCCSSc4ccccn4)cc3OC)cc2N)C1 (some centres unmarked) [EC1695]		IC50 (KB cells; [2]): ≥ 100 nM; IC50 (KB cells; [3]): 1 nM
C=C1C[C@@H](C2OCCN2C(=O)OCc2ccc(SSC[C@H](NC(=O)[C@H](CC(=O)O)NC(=O)[C@H](CC(=O)O)NC(=O)[C@H](CCCNC(=N)N)NC(=O)[C@H](CC(=O)O)NC(=O)CC[C@H](NC(=O)c3ccc(NCc4cnc5nc(N)[nH]c(=O)c5n4)cc3)C(=O)O)C(=O)O)cc2)N(C(=O)c2cc(OC)c(OCCCCCOc3cc(N)c(C(=O)N4CC(=C)C[C@H]4C4OCCN4C(=O)OCc4ccc(SSC[C@H](NC(=O)[C@H](CC(=O)O)NC(=O)[C@H](CC(=O)O)NC(=O)[C@H](CCCNC(=N)N)NC(=O)[C@H](CC(=O)O)NC(=O)CC[C@H](NC(=O)c5ccc(NCc6cnc7nc(N)[nH]c(=O)c7n6)cc5)C(=O)O)C(=O)O)cc4)cc3OC)cc2N)C1 (some centres unmarked) [EC1704]	0.46	
C=C1C[C@H]2C(=O)Nc3cc(OCCCCCOc4cc(N)c(C(=O)N5CC(=C)C[C@H]5C5OCCN5C(=O)OCCCSC[C@H](NC(=O)[C@H](CC(=O)O)NC(=O)[C@H](CC(=O)O)NC(=O)[C@H](CCCNC(=N)N)NC(=O)[C@H](CC(=O)O)NC(=O)CC[C@H](NC(=O)c5ccc(NCc6cnc7nc(N)[nH]c(=O)c7n6)cc5)C(=O)O)C(=O)O)cc4OC)c(OC)cc3C(=O)N2C1 (some centres unmarked) [EC1772]	0.33	
C=C1C[C@@H](C2OCCN2C(=O)OCc2ccc(NC(=O)[C@H](C)NC(=O)[C@@H](NC(=O)CCCCCN3C(=O)CC(SC[C@@H](NC(=O)[C@H](CCC(=O)NC[C@H](O)[C@@H](O)[C@H](O)[C@H](O)CO)NC(=O)[C@@H](CCC(=O)O)NC(=O)[C@H](CCC(=O)NC[C@H](O)[C@@H](O)[C@H](O)[C@H](O)CO)NC(=O)[C@@H](CCC(=O)O)NC(=O)[C@H](CCC(=O)NC[C@H](O)[C@@H](O)[C@H](O)[C@H](O)CO)NC(=O)CC[C@H](NC(=O)c4ccc(NCc5cnc6nc(N)[nH]c(=O)c6n5)cc4)C(=O)O)C(=O)O)C3=O)C(C)C)cc2)N(C(=O)c2cc(OC)c(OCCCCCOc3cc(N)c(C(=O)N4CC(=C)C[C@H]4C4OCCN4C(=O)OCC4c5ccccc5-c5ccccc54)cc3OC)cc2N)C1 (some centres unmarked) [EC1911]	0.7	
C=C1C[C@@H](C2OCCN2C(=O)OCCSSC[C@@H](NC(=O)[C@H](CCC(=O)NC[C@H](O)[C@@H](O)[C@H](O)[C@H](O)CO)NC(=O)[C@@H](CCC(=O)O)NC(=O)[C@H](CCC(=O)NC[C@H](O)[C@@H](O)[C@H](O)[C@H](O)CO)NC(=O)[C@@H](CCC(=O)O)NC(=O)[C@H](CCC(=O)NC[C@H](O)[C@@H](O)[C@H](O)[C@H](O)CO)NC(=O)CC[C@H](NC(=O)c2ccc(NCc3cnc4nc(N)[nH]c(=O)c4n3)cc2)C(=O)O)C(=O)O)N(C(=O)c2cc(OC)c(OCCCCCOc3cc(N)c(C(=O)N4CC(=C)C[C@H]4C4OCCN4C(=O)OCCSSc4ccccn4)cc3OC)cc2N)C1 (some centres unmarked) [EC1949]	1.49	
C=C1C[C@H]2C(=O)Nc3cc(OCCCCCOc4cc(N)c(C(=O)N5CC(=C)C[C@H]5C5OCCN5C(=O)OCc5ccc(NC(=O)[C@H](C)NC(=O)[C@@H](NC(=O)CCOCCOCCOCCOCCNC(=O)CCN6C(=O)CC(SC[C@@H](NC(=O)[C@H](CCC(=O)NC[C@H](O)[C@@H](O)[C@H](O)[C@H](O)CO)NC(=O)[C@@H](CCC(=O)O)NC(=O)[C@H](CCC(=O)NC[C@H](O)[C@@H](O)[C@H](O)[C@H](O)CO)NC(=O)[C@@H](CCC(=O)O)NC(=O)[C@H](CCC(=O)NC[C@H](O)[C@@H](O)[C@H](O)[C@H](O)CO)NC(=O)CC[C@H](NC(=O)c7ccc(NCc8cnc9nc(N)[nH]c(=O)c9n8)cc7)C(=O)O)C(=O)O)C6=O)C(C)C)cc5)cc4OC)c(OC)cc3C(=O)N2C1 (some centres unmarked) [EC2074]	3.6	
C=C1C[C@@H](C2OCCN2C(=O)OCc2ccc(NC(=O)[C@H](C)NC(=O)[C@@H](NC(=O)CCOCCOCCOCCOCCNC(=O)CCN3C(=O)CC(SC[C@@H](NC(=O)[C@H](CCC(=O)NC[C@H](O)[C@@H](O)[C@H](O)[C@H](O)CO)NC(=O)[C@@H](CCC(=O)O)NC(=O)[C@H](CCC(=O)NC[C@H](O)[C@@H](O)[C@H](O)[C@H](O)CO)NC(=O)[C@@H](CCC(=O)O)NC(=O)[C@H](CCC(=O)NC[C@H](O)[C@@H](O)[C@H](O)[C@H](O)CO)NC(=O)CC[C@H](NC(=O)c4ccc(NCc5cnc6nc(N)[nH]c(=O)c6n5)cc4)C(=O)O)C(=O)O)C3=O)C(C)C)cc2)N(C(=O)c2cc(OC)c(OCCCCCOc3ccc(-c4nc5ccc(-c6nc7cc(N8CCN(C)CC8)ccc7[nH]6)cc5[nH]4)cc3)cc2N)C1 (some centres unmarked) [EC2080]	0.2	
C=C1C[C@@H](C2OCCN2C(=O)OCC2c3ccccc3-c3ccccc32)N(C(=O)c2cc(OC)c(OCCCCCOc3cc(NC(=O)OCc4ccc(NC(=O)[C@H](C)NC(=O)[C@@H](NC(=O)CCOCCOCCOCCOCCNC(=O)CCN5C(=O)CC(SC[C@@H](NC(=O)[C@H](CCC(=O)NC[C@H](O)[C@@H](O)[C@H](O)[C@H](O)CO)NC(=O)[C@@H](CCC(=O)O)NC(=O)[C@H](CCC(=O)NC[C@H](O)[C@@H](O)[C@H](O)[C@H](O)CO)NC(=O)[C@@H](CCC(=O)O)NC(=O)[C@H](CCC(=O)NC[C@H](O)[C@@H](O)[C@H](O)[C@H](O)CO)NC(=O)CC[C@H](NC(=O)c6ccc(NCc7cnc8nc(N)[nH]c(=O)c8n7)cc6)C(=O)O)C(=O)O)C5=O)C(C)C)cc4)c(C(=O)N4CC(=C)C[C@H]4C4OCCN4C(=O)OCC4c5ccccc5-c5ccccc54)cc3OC)cc2N)C1 (some centres unmarked) [EC2103]	3.5	
C=C1C[C@@H](C2OCCN2C(=O)OCc2ccc(NC(=O)[C@H](C)NC(=O)[C@@H](NC(=O)CCOCCOCCOCCOCCNC(=O)CCN3C(=O)CC(SC[C@@H](NC(=O)[C@H](CCC(=O)NC[C@H](O)[C@@H](O)[C@H](O)[C@H](O)CO)NC(=O)[C@@H](CCC(=O)O)NC(=O)[C@H](CCC(=O)NC[C@H](O)[C@@H](O)[C@H](O)[C@H](O)CO)NC(=O)[C@@H](CCC(=O)O)NC(=O)[C@H](CCC(=O)NC[C@H](O)[C@@H](O)[C@H](O)[C@H](O)CO)NC(=O)CC[C@H](NC(=O)c4ccc(NCc5cnc6nc(N)[nH]c(=O)c6n5)cc4)C(=O)O)C(=O)O)C3=O)C(C)C)cc2)N(C(=O)c2cc(OC)c(OCCCCCOc3cc(N)c(C(=O)N4CC(=C)C[C@H]4C4OCCN4C(=O)OCc4ccc([N+](=O)[O-])cc4)cc3OC)cc2N)C1 (some centres unmarked) [EC2127]	1.34	
